Test results published in the NIST ThermoML archive (doi:10.1016/j.jct.2008.01.003).
± gives the expanded uncertainty stated by the source.

Assay: mn = molality of the nth substance listed, in mol/kg
Conditions: 101 kPa, Liquid

CCCCCCn1cc[n+](C)c1.[Br-] [3-hexyl-1-methyl-1H-imidazolium bromide] + O
Conditions | mass density, 283.15 K [kg/m3] | mass density, 288.15 K [kg/m3] | mass density, 293.15 K [kg/m3] | speed of sound, 283.15 K [m/s] | speed of sound, 288.15 K [m/s] | speed of sound, 293.15 K [m/s]
m1 = 0.0042 | 999.919 ± 0.48 | 999.312 ± 0.49 | 998.411 ± 0.49 | 1448.7 ± 2.9 | 1467 ± 2.9 | 1483.2 ± 2.9
m1 = 0.0048 | 999.941 ± 0.48 | 999.334 ± 0.49 | 998.432 ± 0.49 | 1448.8 ± 2.9 | 1467.1 ± 2.9 | 1483.2 ± 2.9
m1 = 0.0067 | 1000.03 ± 0.48 | 999.423 ± 0.49 | 998.518 ± 0.49 | 1449.2 ± 2.9 | 1467.4 ± 2.9 | 1483.5 ± 2.9
m1 = 0.0081 | 1000.1 ± 0.49 | 999.485 ± 0.49 | 998.579 ± 0.49 | 1449.3 ± 2.9 | 1467.4 ± 2.9 | 1483.6 ± 2.9
m1 = 0.0139 | 1000.38 ± 0.49 | 999.762 ± 0.49 | 998.85 ± 0.49 | 1450.3 ± 2.9 | 1468.4 ± 2.9 | 1484.5 ± 2.9
m1 = 0.0295 | 1001.15 ± 0.49 | 1000.52 ± 0.49 | 999.592 ± 0.49 | 1452.9 ± 2.9 | 1470.8 ± 2.9 | 1486.7 ± 2.9
m1 = 0.0369 | 1001.52 ± 0.49 | 1000.88 ± 0.49 | 999.946 ± 0.49 | 1453.3 ± 2.9 | 1471.1 ± 2.9 | 1486.8 ± 2.9
m1 = 0.0487 | 1002.1 ± 0.5 | 1001.45 ± 0.49 | 1000.5 ± 0.49 | 1455.3 ± 2.9 | 1473 ± 2.9 | 1488.5 ± 2.9
m1 = 0.064 | 1002.84 ± 0.5 | 1002.17 ± 0.5 | 1001.21 ± 0.49 | 1457.9 ± 2.9 | 1475.3 ± 2.9 | 1490.7 ± 2.9
m1 = 0.073 | 1003.27 ± 0.51 | 1002.59 ± 0.5 | 1001.62 ± 0.5 | 1459.4 ± 2.9 | 1476.6 ± 2.9 | 1491.9 ± 2.9
m1 = 0.094 | 1004.29 ± 0.51 | 1003.59 ± 0.51 | 1002.6 ± 0.5 | 1462.8 ± 2.9 | 1479.8 ± 2.9 | 1494.8 ± 2.9
m1 = 0.1183 | 1005.45 ± 0.52 | 1004.72 ± 0.52 | 1003.71 ± 0.51 | 1466.9 ± 2.9 | 1483.5 ± 2.9 | 1498.2 ± 3
m1 = 0.1423 | 1006.6 ± 0.53 | 1005.85 ± 0.52 | 1004.81 ± 0.52 | 1470.9 ± 2.9 | 1487.1 ± 2.9 | 1501.4 ± 3
m1 = 0.1639 | 1007.6 ± 0.54 | 1006.82 ± 0.53 | – | 1474 ± 2.9 | 1490 ± 2.9 | –
m1 = 0.2206 | 1010.25 ± 0.55 | 1009.42 ± 0.55 | – | 1482.7 ± 2.9 | 1497.9 ± 3 | –
m1 = 0.2581 | 1011.96 ± 0.57 | 1011.09 ± 0.56 | – | 1488.1 ± 2.9 | 1502.7 ± 3 | –
m1 = 0.3034 | 1014.04 ± 0.58 | 1013.11 ± 0.57 | – | 1494.6 ± 3 | 1508.7 ± 3 | –
m1 = 0.3543 | 1016.3 ± 0.6 | 1015.32 ± 0.59 | – | 1501.6 ± 3 | 1515 ± 3 | –
m1 = 0.3874 | 1017.82 ± 0.61 | 1016.8 ± 0.6 | – | 1506.1 ± 3 | 1519.1 ± 3 | –
m1 = 0.4492 | 1020.54 ± 0.63 | 1019.46 ± 0.62 | – | 1513.7 ± 3 | 1525.9 ± 3 | –
m1 = 0.6269 | 1028.05 ± 0.69 | 1026.78 ± 0.68 | – | 1535.2 ± 3 | 1545.3 ± 3 | –
m1 = 0.8614 | 1037.26 ± 0.76 | 1035.74 ± 0.75 | – | 1557.7 ± 3.1 | 1565.1 ± 3.1 | –
m1 = 1.001 | 1042.28 ± 0.8 | 1040.64 ± 0.79 | – | 1568.5 ± 3.1 | 1574.6 ± 3.1 | –
m1 = 1.321 | 1053.01 ± 0.89 | 1051.1 ± 0.88 | – | 1586.3 ± 3.1 | 1590.3 ± 3.1 | –
m1 = 1.739 | 1065.23 ± 1 | 1063.06 ± 0.99 | – | 1600 ± 3.2 | 1602.5 ± 3.2 | –
m1 = 2.087 | 1074.16 ± 1.1 | 1071.82 ± 1.1 | – | 1607.4 ± 3.2 | 1608.9 ± 3.2 | –
